The NIST ThermoML archive (doi:10.1016/j.jct.2017.09.020)
± gives the expanded uncertainty stated by the source.

Conditions: Liquid, Ebulliometric method (Recirculating still)

| vapor or sublimation pressure (389.1 K) [kPa] | vapor or sublimation pressure (404.15 K) [kPa] | vapor or sublimation pressure (413.57 K) [kPa] | vapor or sublimation pressure (417.53 K) [kPa] | vapor or sublimation pressure (433.71 K) [kPa] | vapor or sublimation pressure (443.3 K) [kPa] | Compound |
| --- | --- | --- | --- | --- | --- | --- |
| 2 ± 0.21 | 4 ± 0.42 | 6 ± 0.63 |  |  |  | CCCCCCCCCC(=O)OC [methyl decanoate] |
|  |  |  | 2 ± 0.21 | 4 ± 0.42 | 6 ± 0.63 | CCCCCCCCCCCC(=O)OC [methyl dodecanoate] |
